Earlier results, collected in patent US9808468B2, “Formulation of meloxicam” (ICEUTICA PTY LTD., priority 2014, dated 2017).

Cc1cnc(NC(=O)C2=C(O)c3ccccc3S(=O)(=O)N2C)s1 [Meloxicam, 4-hydroxy-2-methyl-N-(5-methyl-2-thiazolyl)-2H-1,2-benzothiazine-3-carboxamide-1,1-dioxide]
solubility in water: practically insoluble
